Patent US9084812B2, “Composition useful for the prevention or reduction of the progression of prostate cancer” (SIGMA-TAU INDUSTRIE FARMACEUTICHE RIUNITE S.P.A., priority 2008, dated 2015)
Several values for one entry are separate records, joined by “and”; a condition that tells them apart may be missing. Equal entries are not always repeated.

What was measured:
[1] = test system: PC3 cells; test: MTT colorimetric cell proliferation assay, PC3; type: cell-based, human; design: Absorbance 540 nm, single wells (N° 1-8) / Absorbance 540 nm, Mean / PC3 cell proliferation, single wells (N° 1-8) / PC3 cell proliferation, Mean: unit not given here; settings: for Absorbance 540 nm, single wells (N° 1-8): lycopene 5 mmol/L, selenium 30 ng/ml, zinc 10 μg/ml; for % inhib: vs control
Procedure: (§1) For the experiments reported in the following established human prostate carcinoma cell lines LNCaP and PC3 (obtained from the American Type Culture Collection Rockville, Md.) were used. The LNCaP cells were cultured in RPMI 1640 medium (Life Technologies, Rockville, Md.), supplemented with 10% Fetal Bovine Serum (FBS) and 1% Penicillin and Streptomycin. The cells were incubated at 37 degree C. in a humidified atmosphere of 5% CO2 in air. Both sets of cell cultures were grown to 80% confluence in 10 cm tissue culture flasks and split 1:8. The cells were plated in 96 cell plates and allowed to attach and reach 60-70% confluence before being used for experimentation. […] Cells that were used as control were incubated with same amount of PBS in complete cell medium. The effects of lycopene (5 mmol/L], selenium (30 ng/ml), zinc (10 μg/ml), serenoa (10 μg/ml), and soya isoflavon (10 μg/ml) were also tested by adding them to the cell culture alone or in combination with the green tea extract and pomegranate extract. The cellular proliferation of the cells was determined using the 3-(4,5-dimethylthiazol-2-yl)-2,5-diphenyltetrazolium (MIT) colorimetric assay following 24 hours of incubation at 37° C. with or without the test agents. The MTT ([…]) was added to all the wells and incubated for a further 2 hr. The plate was than centrifuged at 500×g for 5 min at 4 degree C. The MIT solution was removed from the wells by careful aspiration and buffered DMSO (0.1 ml) was added to each of the wells and plates shaken for 15 mins. The absorbance was measured on a microplate reader at the wavelength of 540 nm. The effect of each compound alone and in combination on cell growth was assessed as the percentage of cell viability in which the untreated control cells were taken as those being completely viable and allowed to grow freely.

[2] = test system: LNCaP cells; test: MTT colorimetric cell proliferation assay, LNCaP; type: cell-based, human; design: Absorbance 540 nm, single wells (N° 1-10) / Absorbance 540 nm, Mean / LNCaP cell proliferation, Mean: unit not given here; settings: for % inhib: vs control
Procedure: as §1

[3] = Table 2, 24 hours incubation, green tea 40 μg/ml, pomegranate 40 μg/ml
[4] = Table 2, 24 hours incubation, mean of 8 wells
[5] = Table 1, 24 hours incubation, mean of 10 wells

| SMILES | Absorbance 540 nm, single wells (N° 1-8) [1, 3] | Absorbance 540 nm, Mean [1, 4] | % inhib ([1]; Table 2, 24 hours incubation) [%] | Absorbance 540 nm, single wells (N° 1-10) ([2]; Table 1, 24 hours incubation, green tea 40 μg/ml, pomegranate 40 μg/ml, lycopene 5 mmol/L, selenium 30 ng/ml, zinc 10 μg/ml) | Absorbance 540 nm, Mean [2, 5] | % inhib ([2]; Table 1, 24 hours incubation) [%] | PC3 cell proliferation, single wells (N° 1-8) ([1]; Table 4, 24 hours incubation, green tea 40 μg/ml, pomegranate 40 μg/ml, serenoa 10 μg/ml, soya isoflavon 10 μg/ml, L-carnitine) | PC3 cell proliferation, Mean ([1]; Table 4, 24 hours incubation, mean of 8 wells) | % inhib ([1]; Table 4, 24 hours incubation) [%] | LNCaP cell proliferation, Mean ([2]; Table 3, 24 hours incubation, mean of 10 wells) | % inhib ([2]; Table 3, 24 hours incubation) [%] |
| --- | --- | --- | --- | --- | --- | --- | --- | --- | --- | --- | --- |
| CC(C)=CCC/C(C)=C/C=C/C(C)=C/C=C/C(C)=C/C=C/C=C(C)/C=C/C=C(C)/C=C/C=C(\C)CCC=C(C)C [C, lycopene] | 377 and 314 and 322 and 309 and 299 and 316 and 382 and 308 | 328 | 11.4 | 312 and 317 and 301 and 329 and 315 and 327 and 353 and 341 | 324 | 6.4 |  |  |  |  |  |
| [Se] [D, selenium] | 309 and 341 and 345 and 286 and 292 and 313 and 321 and 374 | 323 | 12.7 |  | 311 | 9.8 |  |  |  |  |  |
| C[N+](C)(C)C[C@H](O)CC(=O)[O-] [H, L-carnitine] |  |  |  |  |  |  | 366 and 341 and 387 and 320 and 378 and 392 and 385 | 369 | 2.6 | 347 | 3.3 |
| [Zn] [E, zinc] | 355 and 322 and 395 and 344 and 312 and 321 and 339 | 342 | 7.8 |  | 325 | 5.7 |  |  |  |  |  |
